Patent US20060167229A1, “Biologically active peptide conjugates” (priority 2002, published 2006)
Marks after values point to notes of the source that are not given here. Ends that are not written are not given here.

What was measured:
Assay type in all cases: in vivo, BALB/c mice
[1] = test system: T lymphocyte; experiment: T lymphocyte transformation test (ConA-stimulated spleen cells of treated mice, MTT); details: for X ± SD (stimulation index): healthy mice, saline 1.3 ± 0.1; for effect on T lymphocyte transformation (summary): statistically significant difference from saline in any of the dosage groups 0.5-500 μg/kg/day
Experimental: The above substances were all dissolved in 0.5 ml saline and injected intraperitoneal (i.p.) for 15 continuous days, once per day.
Ten mice per group. The day after the last test substance administration, the mice were sacrificed by cervical dislocation. The spleen was isolated aseptically and manually dispersed in cold D-Hank's solution using an injection needle. The dispersed cell suspension was further sieved through a 100 gauge 150 μm diameter stainless steel sieve. After centrifugation at 200 g for 10 minutes, the supernatant was discarded. The cell pellet was re-suspended in 10 volume of Tris-NH4Cl buffer and then kept standing still for 10 minutes at room temperature. The suspended cells were collected by centrifugation at 150 g for 10 minutes. The cells were washed 2-4 times with cold D-Hank's solution by re-suspending and collecting by centrifugation with condition as described above. The washed cells were then diluted to the desired cell densities by RPMI-1640 culture medium, containing 10% fetal bovine serum.
(§1) Spleen cells of density 1×10^6/ml were placed onto a 96 wells cell culture plate, 100 μL/well, three parallel wells each of the assay sample and control sample per mouse. To the assay wells, 100 μl/well ConA of 100 μg/ml in RPMI-1640 was added, and […] plain RPMI-1640 was used for the controls. The cells were incubated for 66 hrs at 37° C., 5% CO2. The cells were then pelleted by centrifugation at 150 g for 10 minutes.
50 μl/well MTT of 1 mg/ml in RPMI-1640 was added to the cell pellet and the cells re-suspended by shaking for 2 minutes. The incubation was continued for 4 hours. The supernatant was discarded after centrifugation at 150 g for 10 minutes. 120 μl 40 mM HCl-2-propanol was added to the cell pellet and shaken for 3 minutes. […]
Each mouse formed three assay wells and three control wells. The Stimulation Index (SI) of each mouse was obtained by first deriving the average OD of the three parallel wells, then dividing the value of the assay wells by the control wells.

[2] = test system: IL-2; experiment: T lymphocyte IL-2 secretion test (HT-2 cell bioassay of ConA supernatant); details: for activity of T lymphocyte in secreting IL-2, X ± SD (IU): healthy mice; for effect on the secretion of interleukin-2 (IL-2) by T lymphocytes (summary): statistically significant difference from saline in any of the dosage groups 0.5-500 μg/kg/day
Experimental: as §1
HT-2 cells at log phase were collected by centrifugation at 150 g for 10 minutes, and washed three times with cold Hank's solution by re-suspension and centrifugation. The collected HT-2 cells were re-suspended in RPMI-1640 and incubated at 37° C., 5% CO2 for 30 minutes. The cells were further washed twice with RPMI-1640 by re-suspension and centrifugation, and re-suspended to final concentration of 2×10^5/ml with RPMI-1640.
rIL-2 was diluted to the following concentration with RPMI-1640: 500 IU/ml, 250 IU/ml, 125 IU/ml, 62.5 IU/ml, 31.25 IU/ml, and […].
The plate was incubated at 37° C., 5% CO2 for 68 hours, then centrifuged at 150 g for 15 minutes and the supernatant removed. 100 μl 0.5 mg/ml MTT in RPMI-1640 without phenolsulfonphthalein was added into each well. After shaking for 3-4 minutes to re-suspend the cells, continue to incubate for another 4 hours. Samples were then centrifuged at 150 g for 15 minutes and the supernatant was removed. To each well, 120 μl 40 mM HCl-2-propanol was added, mixed for 3-4 minutes and OD analyzed at 570 nm, referenced at 630 nm with an ELISA plate reader.
The average OD of the three parallel wells of each dilution was taken and plotted against concentration on a semi-log paper, concentration on the X-axis. The concentration at 50% OD saturation was obtained for both the testing supernatant and rIL-2.

[3] = test system: spleen; experiment: Immunity organ weight test, spleen index; details: for weight of spleen (spleen index), X ± SD (%): healthy mice, saline 0.53 ± 0.05; for effect on the weight of the spleen (summary): statistically significant difference from saline in any of the dosage groups 0.5-500 μg/kg/day
Experimental: One day after the last test substance administration (day 16), the liver, spleen, and thymus gland were separated and blotted dry with filter paper and weighed. The phagocytosis index α was calculated as below: α=(^3√{square root over ( )}K)(W÷WLS)
Spleen index (%)=(spleen weight/body weight)×100%

[4] = peptide 5 μg/kg/day i.p. 15 days (IFN-γ, IL-2 3×10^5 IU/kg/day)
[5] = peptide 50 μg/kg/day i.p. 15 days (IFN-γ, IL-2 3×10^5 IU/kg/day)
[6] = peptide 50 μg/kg/day i.p. 15 days (IFN-γ, IL-2 3×10^5 IU/kg/day), saline 39 ± 10
[7] = peptide 500 μg/kg/day i.p. 15 days
[8] = peptide 0.5 μg/kg/day i.p. 15 days (IFN-γ, IL-2 3×10^5 IU/kg/day)
[9] = peptide 500 μg/kg/day i.p. 15 days (IFN-γ, IL-2 3×10^5 IU/kg/day)
[10] = peptide 5 μg/kg/day i.p. 15 days (IFN-γ, IL-2 3×10^5 IU/kg/day), saline 37 ± 9
[11] = peptide 0.51 g/kg/day (so in the source) i.p. 15 days (IFN-γ, IL-2 3×10^5 IU/kg/day), saline 38 ± 13
[12] = peptide 500 μg/kg/day i.p. 15 days (IFN-γ, IL-2 3×10^5 IU/kg/day), saline 39 ± 10

Row | Substance | X ± SD (stimulation index) [1, 4] | X ± SD (stimulation index) [1, 5] | effect on T lymphocyte transformation (summary) [1] | activity of T lymphocyte in secreting IL-2, X ± SD (IU) [2, 6] | effect on the secretion of interleukin-2 (IL-2) by T lymphocytes (summary) [2] | weight of spleen (spleen index), X ± SD (%) [3, 7] | effect on the weight of the spleen (summary) [3] | X ± SD (stimulation index) [1, 8] | X ± SD (stimulation index) [1, 9] | weight of spleen (spleen index), X ± SD (%) ([3]; Table 28, peptide 5 μg/kg/day (so in the source) i.p. 15 days (IFN-γ, IL-2 3×10^5 IU/kg/day)) | activity of T lymphocyte in secreting IL-2, X ± SD (IU) [2, 10] | activity of T lymphocyte in secreting IL-2, X ± SD (IU) [2, 11] | activity of T lymphocyte in secreting IL-2, X ± SD (IU) [2, 12] | weight of spleen (spleen index), X ± SD (%) [3, 8] | weight of spleen (spleen index), X ± SD (%) ([3]; Table 30, peptide 5 μg/kg/day i.p. 15 days)
1 | FNFVPP [CMS003] | 1.6 ± 0.2 | 2.2 ± 0.5*^@^ | enhance | 86 ± 9*^ IU | enhance | 0.40 ± 0.04 % | decrease | – | – | – | – | – | – | – | –
2 | KAVGHLDDLPGAL [CMS008] | – | – | enhance | – | – | – | decrease | 1.7 ± 0.3 | 1.7 ± 0.1 | 0.39 ± 0.08 % | – | – | – | – | –
3 | LGMQACGIHETTY [CMS012] | – | – | enhance | – | enhance | – | – | – | 1.6 ± 0.2 | – | 65 ± 16 IU | 59 ± 13 IU | – | – | –
4 | LRVAPQQHPTL [CMS009] | – | – | enhance | – | enhance | 0.41 ± 0.03 % | decrease | – | 1.7 ± 0.2 | – | – | – | 114 ± 13*^@^ IU | – | –
5 | PTTKTYFPHF [CMS001] | 1.7 ± 0.2 | 2.2 ± 0.5*^@^ | enhance | 60 ± 10 IU | enhance | 0.43 ± 0.07 % | decrease | – | – | – | – | – | – | 0.40 ± 0.05 % | –
6 | Pro Ser Ile Vat Gly Arg Pro Arg His Gln Gly Val Met (PSIVGRPRHQGVM; listed as Sus scrofa) [CMS015] | – | – | enhance | – | enhance | 0.36 ± 0.07 % | decrease | – | 1.9 ± 0.3*^@^ | – | – | – | 85 ± 17*^ IU | – | 0.38 ± 0.15 %
7 | RVAPQQHPTL [CMS011] | – | – | enhance | – | enhance | 0.41 ± 0.04 % | decrease | 1.6 ± 0.4 | – | – | – | 101 ± 19*^@^ IU | – | – | –
8 | Tyr Ser Phe (YSF; listed as Sus scrofa) [CMS022] | – | – | – | – | enhance | – | – | – | – | – | – | 109 ± 14*^@^ IU | – | – | –
9 | VGMGQKDSYV [CMS020] | – | – | – | – | enhance | – | increase | – | – | – | 63 ± 11 IU | – | – | 0.68 ± 0.09*^@^ % | –
